This is an account of results in patent US7709613B2, “Rhenium-188 and rhenium-186 for treatment of tumors expressing a Na+/I− symporter” (priority 2002, dated 2010).

The test system of series [1] is NIS-expressing xenografted mammary adenocarcinoma (NAFA cells). In kind it is in vivo, nude mice. As for the experimental part: Animal model. […] Since erbB-2 (Neu) is one of the better known human breast cancer oncogenes, a mammary tumor cell line (NAFA) induced by oncogenic Neu was used. The NAFA cell line derived from the MMTV-NeuT mouse was grown in DMEM with 10% fetal bovine serum and 1% penicillin-streptomycin. […] Female nude mice (Charles River Laboratories) 4-6 weeks old were injected SC with 10^6 NAFA cells into the left groin.
Biodistribution. […] In order to block mg-NIS in expressing organs and tumor, control animals were injected with the above mixture of isotopes combined with 2 mg NaClO4. […] The % ID/g for each organ was determined, and RIs (% ID/g in the tumor divided by the % ID/g in normal tissue) were calculated.

The target of a further series is T1, rat thyroid NIS (Rattus norvegicus, UniProt Q63008).
T1 sequence (Q63008 1-618): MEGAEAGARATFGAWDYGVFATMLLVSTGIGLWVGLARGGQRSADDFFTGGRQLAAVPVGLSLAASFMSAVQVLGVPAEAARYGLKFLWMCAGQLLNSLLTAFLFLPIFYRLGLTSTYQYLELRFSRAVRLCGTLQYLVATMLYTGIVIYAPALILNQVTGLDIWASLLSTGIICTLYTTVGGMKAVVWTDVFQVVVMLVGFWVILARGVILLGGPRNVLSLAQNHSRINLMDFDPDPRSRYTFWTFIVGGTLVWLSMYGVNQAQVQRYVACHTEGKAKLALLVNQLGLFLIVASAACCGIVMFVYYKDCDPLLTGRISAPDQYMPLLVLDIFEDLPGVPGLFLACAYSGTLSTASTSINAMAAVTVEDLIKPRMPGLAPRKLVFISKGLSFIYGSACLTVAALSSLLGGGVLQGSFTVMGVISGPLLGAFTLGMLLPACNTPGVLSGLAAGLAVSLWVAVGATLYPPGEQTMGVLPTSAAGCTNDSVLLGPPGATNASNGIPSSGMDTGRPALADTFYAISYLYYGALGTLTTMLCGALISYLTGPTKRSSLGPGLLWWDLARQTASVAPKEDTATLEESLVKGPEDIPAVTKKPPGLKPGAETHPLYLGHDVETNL
As to conditions: ref. [44], cited from earlier work; for Km: actively transported ions.

The test system of the next series is FRTL-5 cells. Conditions: read-out: Km for ^125I^− influx; cited from earlier work.
The target in another series is T2, hNIS (Homo sapiens, UniProt Q92911).
T2 construct: expressed in transfected cells; host or cells: MDCK (Madin-Darby canine kidney) cells, hNIS in pcDNA 3.1
T2 sequence (Q92911 1-643): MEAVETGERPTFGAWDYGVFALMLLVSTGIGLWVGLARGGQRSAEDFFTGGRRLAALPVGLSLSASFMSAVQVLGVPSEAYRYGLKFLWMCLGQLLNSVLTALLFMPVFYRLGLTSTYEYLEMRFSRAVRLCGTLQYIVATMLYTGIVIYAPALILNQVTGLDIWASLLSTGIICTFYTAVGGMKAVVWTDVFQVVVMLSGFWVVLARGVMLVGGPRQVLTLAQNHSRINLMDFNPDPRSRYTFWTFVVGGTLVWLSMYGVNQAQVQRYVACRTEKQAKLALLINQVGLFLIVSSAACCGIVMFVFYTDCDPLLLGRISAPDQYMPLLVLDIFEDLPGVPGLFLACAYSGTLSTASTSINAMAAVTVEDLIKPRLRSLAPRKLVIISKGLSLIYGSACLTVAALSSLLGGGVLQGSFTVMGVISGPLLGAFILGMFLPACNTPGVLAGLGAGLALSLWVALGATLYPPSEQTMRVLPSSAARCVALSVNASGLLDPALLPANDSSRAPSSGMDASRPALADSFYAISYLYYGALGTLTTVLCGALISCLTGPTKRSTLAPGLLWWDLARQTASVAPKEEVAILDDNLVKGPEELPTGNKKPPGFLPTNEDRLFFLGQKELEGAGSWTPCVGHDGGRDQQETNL
As to the kind of experiment: Comparative 125I and 188Re uptake into hNIS-transfected and non-transfected MDCK cells. In kind it is cell-based. As to conditions: for Km: hNIS-transfected MDCK cells, Lineweaver-Burk plot, 4-min initial rates, read-out: Km for influx. As for the experimental part: Comparative ^125I and ^188Re uptake into the NIS-expressing cells. Both concentration dependence and kinetic experiments for ^125I and ^188ReO4^− in hNIS-transfected (hNIS in pcDNA 3.1 plasmid) and non-transfected MDCK (Madin-Darby canine kidney) cells were performed using the methods of Weiss et al. and Dai et al.. […] A 4-min time point was used to estimate initial rates for kinetic experiments. Saturation kinetics were analyzed by Lineweaver-Burk plot.

The conditions of series [2]: ref. [23]; cited from earlier work.
A short description of series [3]: Dosimetry calculations (MIRDOSE 3) for 70-kg reference adult bearing a 2 g tumor. Further details: species or system human. As to conditions: using S-values for the whole body. The protocol: Dosimetry. The self-doses to major organs and tumors from ^131I and ^188Re in humans were calculated using MIRDOSE 3 software (ORNL) applying S-values for a 70-kg reference adult. “S” is an absorbed dose per unit cumulated activity. S-values are tabulated in the Medical Internal Radiation Dose pamphlet #11 published by the Society of Nuclear Medicine. The following formula [26] was used for conversion of time-activity data in mice into time-activity data in humans: % ID human organ=% ID/ganimal organ·(body massaninal/body masshuman)·organ masshuman.
It should be noted that dosimetry calculations in humans were performed with the sole purpose of comparing the therapeutic efficacy and potential damage to the stomach and thyroid from ^131I and ^188Re beta-particles, thus only “self” doses were calculated. […] However, in more comprehensive dosimetry calculations organ cross-irradiation from highly penetrative ^131I gamma-rays should be taken into consideration.

The nature of series [4]: Safe dose study in healthy mice, 80 days observation, thyroid and stomach histology. It counts as in vivo. As to conditions: 1.5 mCi. As for the experimental part:
To establish the safe dose of ^188ReO4^− to treat the NIS-expressing tumors in mice, healthy mice were treated with 1.5 mCi ^188ReO4^− and observed for 80 days. […] After 80 days the animals were sacrificed, their thyroids and stomachs removed and analyzed histologically. FIGS. 3A-3C present the hematoxylin and eosin stained thyroid tissue from a control mouse, a mouse treated with 1.5 mCi ^188ReO4^−, and a mouse treated with 50 μCi ^131I^−. FIGS. 3D-3E show the stomachs from the control mouse and the mouse treated with 1.5 mCi ^188ReO4^−, respectively.

Another series has as its system NAFA-cells xenografts. As to the kind of experiment: Histological analysis for apoptosis (Apoptag Plus kit) of NAFA-cells xenografts. It counts as in vivo, nude mice. As to conditions: 2×1.5 mCi, day 35 post-treatment; vs control tumors. From the text: At the completion of the experimental treatment with ^188Re-perrhenate, the animals were sacrificed, their tumors removed, fixed in buffered formaline, cut and analyzed for apoptosis using an Apoptag Plus® kit. Briefly, 3′-OH termini of DNA fragments, which are the hallmark of apoptosis, were labeled with digoxigenin-modified nucleotides by terminal deoxynucleotidyl transferase (TdT). […] The labeled DNA was detected using an anti-digoxigenin antibody, and the detection was performed using a chromagen. As a result the apoptotic cells were stained brown. The results are shown in FIGS. 5A-5B, where apoptotic cells appear lightly stained in the black-and-white image. […] This observation is consistent with the fact that particulate ionizing radiation is known to cause cell death through both apoptotic and necrotic pathways.

The test system of series [5] is NAFA cells-xenografted tumors. The series is described as follows: Treatment of nude mice bearing NAFA cells-xenografted tumors. It counts as in vivo. Conditions: 1.5 mCi followed by 2nd dose of 1.5 mCi one week later; vs untreated tumors. As for the experimental part: Animal model. To investigate the binding of ^125I and ^188Re to NIS-expressing mammary tumors, a xenografted mammary adenocarcinoma model in nude mice was used. Since erbB-2 (Neu) is one of the better known human breast cancer oncogenes, a mammary tumor cell line (NAFA) induced by oncogenic Neu was used. The NAFA cell line derived from the MMTV-NeuT mouse was grown in DMEM with 10% fetal bovine serum and 1% penicillin-streptomycin. […] Female nude mice (Charles River Laboratories) 4-6 weeks old were injected SC with 10^6 NAFA cells into the left groin. Ten days after injection the tumors reached 0.5-0.7 cm in diameter.
When the tumors reached 0.5-0.7 cm in diameter, the animals were treated with 1.5 mCi ^188ReO4^− followed by a 2nd dose of 1.5 mCi ^188ReO4^− one week later.

Where two headings read alike, the source gives them in different places.

`[O-][Cl+3]([O-])([O-])O` [ClO4^−, Na perchlorate, reference compound]: in series [1] (2 mg NaClO4 co-injected, all 3 time points), the “Effect of co-administered blocking agent on uptake of both isotopes by NIS-expressing organs” value was “significantly decreased uptake of both isotopes by the stomach, salivary glands and thyroid”.

In the case of `[O]=[Re](=[O])(=[O])[O-]` [ReO4^−], the “Blocking of NIS” value on rat thyroid NIS is “potent blocking agent for NIS”.

On to `[I-].[Na+]` [^125I^−, sodium iodide, reference compound], for which the Km (as a rule, the concentration of substrate that gives half-maximal velocity) is 30 µM with FRTL-5 cells and 26.1 µM on hNIS.

Take `[131IH]` [^131I^−]: in [2], the “Actual dose to the thyroid, due to iodine organification” value is listed as 1300 rad/mCi and the Whole body dose was 0.71 rad/mCi.

With `O=[N+]([O-])O` [NO3^−], the Km at rat thyroid NIS is 739 µM.

Regarding `[Na+].[O]=[Re](=[O])(=[O])[O-]` [^188ReO4^−, Na perrhenate Na^188ReO4], the Km on hNIS turned out to be 12.6 µM.

For `[O-][Cl+2]([O-])O` [ClO3^−], the Michaelis constant (Km) at rat thyroid NIS was 277 µM.

As for `[Na+].[O]=[188Re](=[O])(=[O])[O-]` [^188ReO4^−, Na perrhenate Na^188ReO4], the “Whole body dose relative to ^131I^−” value in series [3] is on record as roughly 2 times. For the same molecule, in series [4] (80 days, hematoxylin and eosin), the “Damage to normal NIS-containing structures (thyroid, stomach histology)” value is on record as “absence of damage”. For the same molecule, in series [4] (observed for 80 days), the “Weight loss or gastrointestinal toxicity” value is recorded as “No weight loss or other gastrointestinal toxicity”. For the same molecule, the “Apoptotic cells in tumors” value in the series with NAFA-cells xenografts is given as “significantly higher number of apoptotic cells”. For the same molecule, the “Tumor to normal organ ratio (RI)” value turned out to be 0.41 in [1] (20 min, blood); 1.22 in series [1] (20 min, kidneys); 1.27 in [1] (20 min, liver); 8.21 in series [1] (20 min, muscle); 1.46 in series [1] (20 min, salivary glands); 1.39 in series [1] (20 min, spleen). Besides, the “Tumor to normal organ ratio (RI)” value worked out at 0.10 in [1] (20 min, stomach); 0.52 in [1] (20 min, thyroid); 1.00 in [1] (20 min, tumor); 0.54 in series [1] (2 hr, blood); 1.40 in series [1] (2 hr, kidneys); 1.43 in [1] (2 hr, liver). In addition, the “Tumor to normal organ ratio (RI)” value is on record as 5.22 in series [1] (2 hr, muscle); 0.54 in series [1] (2 hr, salivary glands); 2.99 in series [1] (2 hr, spleen); 0.08 in series [1] (2 hr, stomach); 0.25 in series [1] (2 hr, thyroid); 1.00 in series [1] (2 hr, tumor). Moreover, the “Tumor to normal organ ratio (RI)” value stood at 1.45 in series [1] (24 hr, blood); 3.08 in [1] (24 hr, kidneys); 8.00 in series [1] (24 hr, liver); 12.50 in series [1] (24 hr, muscle); 2.85 in series [1] (24 hr, salivary glands); 10.00 in series [1] (24 hr, spleen). In addition, the “Tumor to normal organ ratio (RI)” value in series [1] (24 hr, stomach) is 0.17; in series [1] (24 hr, thyroid) it was 2.00; in series [1] (24 hr, tumor), 1.00. In addition, in series [5], the Tumor growth entry is “Tumor growth stabilization”. Besides, the “Concentration gradient in hNIS-transfected in comparison to non-transfected cells” value on hNIS (MDCK cells) is recorded as 14 fold.
